Columns and labels:
Assay in all cases: KINOMEscan competition binding
Settings in all cases: compound 10.0 µM
[1] = target: TYK2 JH2 pseudokinase (human) (UniProt P29597)
ROCK2 (human) = ROCK2 (human) (UniProt O75116)
ICK (human) = ICK (human) (UniProt Q9UPZ9)
STK4 (human) = STK4 (human) (UniProt Q13043)
TLK2 (human) = TLK2 (human) (UniProt Q86UE8)
PAK6 (human) = PAK6 (human) (UniProt Q9NQU5)
MYLK3 (human) = MYLK3 (human) (UniProt Q32MK0)
TBK1 (human) = TBK1 (human) (UniProt Q9UHD2)
ERBB4 (human) = ERBB4 (human) (UniProt Q15303)
PIK3C2B (human) = PIK3C2B (human) (UniProt O00750)
PLK1 (human) = PLK1 (human) (UniProt P53350)
CAMK2B (human) = CAMK2B (human) (UniProt Q13554)
CDC42BPB (human) = CDC42BPB (human) (UniProt Q9Y5S2)
BMP2K (human) = BMP2K (human) (UniProt Q9NSY1)
RET (human) = RET (human) (UniProt P07949)
RPS6KA4 KD2 (human) = RPS6KA4 KD2 (human) (UniProt O75676)
CSNK1E (human) = CSNK1E (human) (UniProt P49674)
CAMK2A (human) = CAMK2A (human) (UniProt Q9UQM7)
ADCK4 (human) = ADCK4 (human) (UniProt Q96D53)
NLK (human) = NLK (human) (UniProt Q9UBE8)
Chain of NLK (human) (Q9UBE8 whole entry, looked up): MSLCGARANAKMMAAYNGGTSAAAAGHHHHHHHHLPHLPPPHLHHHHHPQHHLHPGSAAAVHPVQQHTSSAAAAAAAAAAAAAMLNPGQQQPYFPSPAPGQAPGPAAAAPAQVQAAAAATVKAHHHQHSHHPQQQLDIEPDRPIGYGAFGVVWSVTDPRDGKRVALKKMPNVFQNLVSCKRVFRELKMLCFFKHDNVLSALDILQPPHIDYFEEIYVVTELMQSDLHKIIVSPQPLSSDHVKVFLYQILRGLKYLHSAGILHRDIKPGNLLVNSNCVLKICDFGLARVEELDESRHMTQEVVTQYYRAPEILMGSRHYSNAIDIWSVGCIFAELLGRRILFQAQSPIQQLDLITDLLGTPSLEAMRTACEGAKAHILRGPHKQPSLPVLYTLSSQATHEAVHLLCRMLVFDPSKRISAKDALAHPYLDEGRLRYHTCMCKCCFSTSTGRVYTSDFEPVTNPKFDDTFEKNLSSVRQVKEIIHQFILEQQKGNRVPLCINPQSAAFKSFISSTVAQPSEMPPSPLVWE

MYLK4 (human) = MYLK4 (human) (UniProt Q86YV6)
LYN (human) = LYN (human) (UniProt P07948)
[2] = target: JAK3 JH1 catalytic (human) (UniProt P52333)
SIK3 (human) = SIK3 (human) (UniProt Q9Y2K2)
WEE1 (human) = WEE1 (human) (UniProt P30291)
CIT (human) = CIT (human) (UniProt O14578)
[3] = test system: KIT (human), P10721 [L576P]
CDK8 (human) = CDK8 (human) (UniProt P49336)
RIOK3 (human) = RIOK3 (human) (UniProt O14730)
Chain of RIOK3 (human) (O14730 whole entry, looked up): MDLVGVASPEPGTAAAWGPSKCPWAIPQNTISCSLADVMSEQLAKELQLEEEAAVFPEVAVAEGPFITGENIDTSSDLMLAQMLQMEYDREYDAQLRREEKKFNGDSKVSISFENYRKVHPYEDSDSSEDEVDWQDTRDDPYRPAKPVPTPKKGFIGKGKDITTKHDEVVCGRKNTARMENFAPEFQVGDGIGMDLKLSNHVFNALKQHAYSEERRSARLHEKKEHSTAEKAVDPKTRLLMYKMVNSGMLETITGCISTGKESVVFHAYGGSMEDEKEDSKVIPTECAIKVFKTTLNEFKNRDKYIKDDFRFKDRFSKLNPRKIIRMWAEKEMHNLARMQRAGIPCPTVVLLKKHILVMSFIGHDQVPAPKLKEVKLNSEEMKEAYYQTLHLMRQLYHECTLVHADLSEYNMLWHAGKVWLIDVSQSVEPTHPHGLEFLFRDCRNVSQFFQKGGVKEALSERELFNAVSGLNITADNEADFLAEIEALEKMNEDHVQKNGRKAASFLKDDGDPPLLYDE

STK25 (human) = STK25 (human) (UniProt O00506)
Chain of STK25 (human) (O00506 whole entry, looked up): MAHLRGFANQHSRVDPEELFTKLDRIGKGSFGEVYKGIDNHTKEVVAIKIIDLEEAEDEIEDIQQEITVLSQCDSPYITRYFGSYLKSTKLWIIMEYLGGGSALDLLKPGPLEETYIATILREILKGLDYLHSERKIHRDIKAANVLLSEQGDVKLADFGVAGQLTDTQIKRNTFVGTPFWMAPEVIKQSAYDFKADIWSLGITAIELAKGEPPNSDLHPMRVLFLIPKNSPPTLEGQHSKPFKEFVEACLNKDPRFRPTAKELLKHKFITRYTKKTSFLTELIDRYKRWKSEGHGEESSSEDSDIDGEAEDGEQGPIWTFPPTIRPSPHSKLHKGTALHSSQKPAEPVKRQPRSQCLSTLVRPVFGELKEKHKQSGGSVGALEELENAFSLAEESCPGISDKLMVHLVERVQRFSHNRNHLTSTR

MAP3K11 (human) = MAP3K11 (human) (UniProt Q16584)
GRK7 (human) = GRK7 (human) (UniProt Q8WTQ7)
Chain of GRK7 (human) (Q8WTQ7 whole entry, looked up): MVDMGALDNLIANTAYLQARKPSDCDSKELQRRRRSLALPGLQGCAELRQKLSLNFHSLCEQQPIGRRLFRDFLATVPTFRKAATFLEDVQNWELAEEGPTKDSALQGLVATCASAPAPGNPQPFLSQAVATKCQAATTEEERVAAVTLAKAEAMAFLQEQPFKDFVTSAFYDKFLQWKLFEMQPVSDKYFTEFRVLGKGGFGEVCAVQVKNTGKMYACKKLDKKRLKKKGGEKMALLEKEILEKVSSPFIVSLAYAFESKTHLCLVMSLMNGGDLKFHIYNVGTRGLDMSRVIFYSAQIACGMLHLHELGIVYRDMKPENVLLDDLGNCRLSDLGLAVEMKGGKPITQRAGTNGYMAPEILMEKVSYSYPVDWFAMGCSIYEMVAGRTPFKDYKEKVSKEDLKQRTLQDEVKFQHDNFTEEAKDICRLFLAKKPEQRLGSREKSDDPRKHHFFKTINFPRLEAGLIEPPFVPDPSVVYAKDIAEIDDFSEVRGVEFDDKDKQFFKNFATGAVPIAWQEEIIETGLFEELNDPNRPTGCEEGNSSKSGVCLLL

AKT1 (human) = AKT1 (human) (UniProt P31749)
FLT4 (human) = FLT4 (human) (UniProt P35916)
STK17A (human) = STK17A (human) (UniProt Q9UEE5)
AKT3 (human) = AKT3 (human) (UniProt Q9Y243)
PAK3 (human) = PAK3 (human) (UniProt O75914)
Chain of PAK3 (human) (O75914 whole entry, looked up): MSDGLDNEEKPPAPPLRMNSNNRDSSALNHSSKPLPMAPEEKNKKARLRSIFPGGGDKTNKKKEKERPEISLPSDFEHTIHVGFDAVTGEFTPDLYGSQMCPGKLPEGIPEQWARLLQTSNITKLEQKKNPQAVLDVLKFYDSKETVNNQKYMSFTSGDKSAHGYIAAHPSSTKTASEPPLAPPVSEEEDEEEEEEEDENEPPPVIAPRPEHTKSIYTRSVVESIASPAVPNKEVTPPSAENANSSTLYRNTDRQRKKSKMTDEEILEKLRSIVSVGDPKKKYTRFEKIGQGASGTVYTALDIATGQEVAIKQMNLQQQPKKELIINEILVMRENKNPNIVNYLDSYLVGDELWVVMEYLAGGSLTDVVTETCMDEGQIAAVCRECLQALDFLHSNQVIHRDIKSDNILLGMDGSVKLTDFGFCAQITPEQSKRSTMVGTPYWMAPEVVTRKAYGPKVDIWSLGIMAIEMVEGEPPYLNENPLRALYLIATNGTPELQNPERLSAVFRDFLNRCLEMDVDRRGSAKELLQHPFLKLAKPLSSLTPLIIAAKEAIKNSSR

TEC (human) = TEC (human) (UniProt P42680)
Chain of TEC (human) (P42680 whole entry, looked up): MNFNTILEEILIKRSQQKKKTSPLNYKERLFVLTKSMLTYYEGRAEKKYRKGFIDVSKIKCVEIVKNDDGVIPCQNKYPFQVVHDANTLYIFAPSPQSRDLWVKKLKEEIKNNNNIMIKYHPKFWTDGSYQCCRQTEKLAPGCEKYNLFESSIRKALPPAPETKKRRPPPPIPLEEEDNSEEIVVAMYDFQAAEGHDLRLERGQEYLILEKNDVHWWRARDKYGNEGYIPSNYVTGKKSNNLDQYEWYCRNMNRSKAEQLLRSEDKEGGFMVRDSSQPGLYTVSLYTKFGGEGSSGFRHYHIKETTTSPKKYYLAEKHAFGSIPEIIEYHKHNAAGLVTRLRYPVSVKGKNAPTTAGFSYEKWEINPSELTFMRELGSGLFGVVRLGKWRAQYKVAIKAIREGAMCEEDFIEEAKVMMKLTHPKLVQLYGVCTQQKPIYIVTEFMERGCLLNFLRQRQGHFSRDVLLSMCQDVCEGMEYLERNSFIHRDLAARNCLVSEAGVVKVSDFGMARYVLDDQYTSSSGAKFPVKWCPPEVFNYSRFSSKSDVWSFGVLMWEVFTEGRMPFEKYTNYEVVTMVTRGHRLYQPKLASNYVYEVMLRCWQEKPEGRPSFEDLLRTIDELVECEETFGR

NTRK3 (human) = NTRK3 (human) (UniProt Q16288)
MAP2K3 (human) = MAP2K3 (human) (UniProt P46734)

Chain of TBK1 (human) (Q9UHD2 whole entry, looked up): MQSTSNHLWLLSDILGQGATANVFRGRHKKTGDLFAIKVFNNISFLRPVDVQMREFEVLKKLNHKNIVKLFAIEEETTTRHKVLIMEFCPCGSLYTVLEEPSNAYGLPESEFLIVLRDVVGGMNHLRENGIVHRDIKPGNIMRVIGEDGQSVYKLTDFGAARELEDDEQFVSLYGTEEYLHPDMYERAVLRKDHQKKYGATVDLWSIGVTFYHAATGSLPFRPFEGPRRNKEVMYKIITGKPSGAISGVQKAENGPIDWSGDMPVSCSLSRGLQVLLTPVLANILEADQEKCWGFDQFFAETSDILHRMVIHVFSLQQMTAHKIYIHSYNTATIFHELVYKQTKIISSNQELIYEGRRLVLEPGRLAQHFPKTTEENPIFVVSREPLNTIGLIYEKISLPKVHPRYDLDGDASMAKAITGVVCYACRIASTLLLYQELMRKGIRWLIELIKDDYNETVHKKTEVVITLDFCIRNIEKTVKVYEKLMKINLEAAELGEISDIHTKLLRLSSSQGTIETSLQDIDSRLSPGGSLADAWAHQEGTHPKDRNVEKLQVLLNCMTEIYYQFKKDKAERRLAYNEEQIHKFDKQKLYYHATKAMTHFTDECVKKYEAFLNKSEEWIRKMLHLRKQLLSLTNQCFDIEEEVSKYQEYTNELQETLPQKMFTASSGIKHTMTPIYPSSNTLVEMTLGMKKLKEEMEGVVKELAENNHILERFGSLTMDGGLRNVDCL
Chain of MYLK3 (human) (Q32MK0 whole entry, looked up): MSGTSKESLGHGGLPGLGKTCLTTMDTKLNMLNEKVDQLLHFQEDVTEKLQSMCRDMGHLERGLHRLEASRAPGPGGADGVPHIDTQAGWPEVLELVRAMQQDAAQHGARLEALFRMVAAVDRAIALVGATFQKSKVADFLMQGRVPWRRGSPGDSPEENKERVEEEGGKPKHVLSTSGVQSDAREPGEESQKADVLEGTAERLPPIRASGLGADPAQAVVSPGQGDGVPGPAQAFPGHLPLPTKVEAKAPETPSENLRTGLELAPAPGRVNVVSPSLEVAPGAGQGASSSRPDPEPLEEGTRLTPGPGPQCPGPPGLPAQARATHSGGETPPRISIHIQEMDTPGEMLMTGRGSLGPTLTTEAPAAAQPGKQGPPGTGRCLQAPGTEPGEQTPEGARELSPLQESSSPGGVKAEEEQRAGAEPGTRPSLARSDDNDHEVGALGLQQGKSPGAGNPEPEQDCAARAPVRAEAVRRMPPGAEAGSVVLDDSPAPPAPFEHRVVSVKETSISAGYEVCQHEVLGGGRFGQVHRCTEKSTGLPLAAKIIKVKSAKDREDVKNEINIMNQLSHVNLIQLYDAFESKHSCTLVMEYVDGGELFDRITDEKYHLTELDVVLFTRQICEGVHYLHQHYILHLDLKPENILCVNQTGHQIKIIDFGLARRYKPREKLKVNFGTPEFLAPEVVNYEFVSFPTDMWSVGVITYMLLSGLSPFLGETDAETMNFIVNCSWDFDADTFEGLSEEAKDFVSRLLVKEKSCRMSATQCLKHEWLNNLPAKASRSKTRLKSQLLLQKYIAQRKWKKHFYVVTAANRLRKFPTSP

Question: With `COc1ccc(CNC(=O)Nc2ncc([N+](=O)[O-])s2)cc1` as the compound, how does the kinase still bound, per cent of control [1] read?
Answer: The kinase still bound, per cent of control was 66%.

Question: And the kinase still bound, per cent of control (ROCK2 (human))?
Answer: The kinase still bound, per cent of control was 100%.

Question: And the kinase still bound, per cent of control (ICK (human))?
Answer: The kinase still bound, per cent of control was 87%.

Question: And the kinase still bound, per cent of control (STK4 (human))?
Answer: The kinase still bound, per cent of control was 100%.

Question: And the kinase still bound, per cent of control (TLK2 (human))?
Answer: The kinase still bound, per cent of control was 93%.

Question: What about the kinase still bound, per cent of control (PAK6 (human)) of the same compound?
Answer: Its kinase still bound, per cent of control is 100%.

Question: And the kinase still bound, per cent of control (MYLK3 (human))?
Answer: Its kinase still bound, per cent of control is 52%.

Question: And the kinase still bound, per cent of control (TBK1 (human))?
Answer: Its kinase still bound, per cent of control is 100%.

Question: What about the kinase still bound, per cent of control (ERBB4 (human)) of the same compound?
Answer: Its kinase still bound, per cent of control is 100%.

Question: And the kinase still bound, per cent of control (PIK3C2B (human))?
Answer: Its kinase still bound, per cent of control is 94%.

Question: What about the kinase still bound, per cent of control (PLK1 (human)) of the same compound?
Answer: The kinase still bound, per cent of control was 100%.

Question: And the kinase still bound, per cent of control (CAMK2B (human))?
Answer: Its kinase still bound, per cent of control is 100%.

Question: And the kinase still bound, per cent of control (CDC42BPB (human))?
Answer: Its kinase still bound, per cent of control is 75%.

Question: And the kinase still bound, per cent of control (BMP2K (human))?
Answer: The kinase still bound, per cent of control was 100%.

Question: And the kinase still bound, per cent of control (RET (human))?
Answer: Its kinase still bound, per cent of control is 100%.

Question: And the kinase still bound, per cent of control (RPS6KA4 KD2 (human))?
Answer: Its kinase still bound, per cent of control is 85%.

Question: What about the kinase still bound, per cent of control (CSNK1E (human)) of the same compound?
Answer: The kinase still bound, per cent of control was 87%.

Question: And the kinase still bound, per cent of control (CAMK2A (human))?
Answer: Its kinase still bound, per cent of control is 100%.

Question: What about the kinase still bound, per cent of control (ADCK4 (human)) of the same compound?
Answer: Its kinase still bound, per cent of control is 100%.

Question: What about the kinase still bound, per cent of control (NLK (human)) of the same compound?
Answer: The kinase still bound, per cent of control was 72%.

Question: What about the kinase still bound, per cent of control (MYLK4 (human)) of the same compound?
Answer: Its kinase still bound, per cent of control is 91%.

Question: And the kinase still bound, per cent of control (LYN (human))?
Answer: The kinase still bound, per cent of control was 74%.

Question: And the kinase still bound, per cent of control [2]?
Answer: The kinase still bound, per cent of control was 100%.

Question: And the kinase still bound, per cent of control (SIK3 (human))?
Answer: Its kinase still bound, per cent of control is 77%.

Question: What about the kinase still bound, per cent of control (WEE1 (human)) of the same compound?
Answer: The kinase still bound, per cent of control was 80%.

Question: What about the kinase still bound, per cent of control (CIT (human)) of the same compound?
Answer: The kinase still bound, per cent of control was 89%.

Question: And the kinase still bound, per cent of control [3]?
Answer: The kinase still bound, per cent of control was 97%.

Question: What about the kinase still bound, per cent of control (CDK8 (human)) of the same compound?
Answer: The kinase still bound, per cent of control was 100%.

Question: What about the kinase still bound, per cent of control (RIOK3 (human)) of the same compound?
Answer: Its kinase still bound, per cent of control is 86%.

Question: What about the kinase still bound, per cent of control (STK25 (human)) of the same compound?
Answer: The kinase still bound, per cent of control was 100%.

Question: And the kinase still bound, per cent of control (MAP3K11 (human))?
Answer: Its kinase still bound, per cent of control is 100%.

Question: What about the kinase still bound, per cent of control (GRK7 (human)) of the same compound?
Answer: Its kinase still bound, per cent of control is 100%.

Question: And the kinase still bound, per cent of control (AKT1 (human))?
Answer: The kinase still bound, per cent of control was 86%.

Question: What about the kinase still bound, per cent of control (FLT4 (human)) of the same compound?
Answer: Its kinase still bound, per cent of control is 100%.

Question: What about the kinase still bound, per cent of control (STK17A (human)) of the same compound?
Answer: The kinase still bound, per cent of control was 80%.

Question: What about the kinase still bound, per cent of control (AKT3 (human)) of the same compound?
Answer: The kinase still bound, per cent of control was 92%.

Question: What about the kinase still bound, per cent of control (PAK3 (human)) of the same compound?
Answer: The kinase still bound, per cent of control was 90%.

Question: And the kinase still bound, per cent of control (TEC (human))?
Answer: The kinase still bound, per cent of control was 100%.

Question: And the kinase still bound, per cent of control (NTRK3 (human))?
Answer: Its kinase still bound, per cent of control is 85%.

Question: And the kinase still bound, per cent of control (MAP2K3 (human))?
Answer: Its kinase still bound, per cent of control is 100%.

From the kinase profiling compilation of Christmann-Franck et al. (2016)
